Patent publication US4303785A, “Antitumor anthracycline antibiotics” (priority 1978, dated 1981)
Values after ≈ are worked out from the molar mass of the structure shown. Where two headings read alike, the source gives them in different places.

Experiments:
[1] = tested on: Bacillus cereus ATCC 10702; assay: Minimum inhibitory concentration, broth dilution method (Table 3); type: cell-based; settings: for MIC: ATCC10702
Source text: (§1) To illustrate such activity, minimum inhibitory concentrations (as determined by the broth dilution method) of representative compounds are shown in Table 3.

[2] = tested on: Mycobacterium smegmatis ATCC 607; assay: as above; type: cell-based; settings: for MIC: Mycolicibacterium smegmatis, ATCC607
Source text: as §1

[3] = tested on: Micrococcus flavus FDA 16; assay: as above; type: cell-based; settings: for MIC: Micrococcus flavus, FDA16, Micrococcus flavus FDA 16; for Minimum Inhibitory Concentration (MIC): Micrococcus flavus FDA 16
Source text: as §1

[4] = tested on: Escherichia coli NIHJ; assay: as above; type: cell-based
Source text: as §1

[5] = tested on: Corynebacterium bovis 1810; assay: as above; type: cell-based
Source text: as §1

[6] = tested on: Bacillus megaterium APF; assay: as above; type: cell-based
Source text: as §1

[7] = tested on: Sarcina lutea PCI 1001; assay: as above; type: cell-based; settings: for MIC: Micrococcus luteus, PCI1001
Source text: as §1

[8] = tested on: Bacillus subtillis NRRLB-558; assay: as above; type: cell-based; settings: for MIC: Bacillus, NRRLB558, Bacillus subtillis NRRLB-558; for Minimum Inhibitory Concentration (MIC): Bacillus subtillis NRRLB-558
Source text: as §1

[9] = tested on: Pseudomonas aeruginosa A3; assay: as above; type: cell-based; settings: for MIC: Pseudomonas aeruginosa, A3, Pseudomonas aeruginosa A3; for Minimum Inhibitory Concentration (MIC): Pseudomonas aeruginosa A3
Source text: as §1

[10] = tested on: Candida albicans; assay: as above; type: cell-based
Source text: as §1

[11] = tested on: Staph. aureus FDA 209P; assay: as above; type: cell-based; settings: for MIC: Staphylococcus aureus, FDA209P
Source text: as §1

[12] = tested on: Staph. aureus Smith; assay: as above; type: cell-based
Source text: as §1

[13] = tested on: L1210 leukemia cells; assay: Growth inhibitory effect on L1210 cells in culture (Table 4); type: cell-based; settings: for inhibition at 0.1 µg/mL / inhibition at 0.5 µg/mL: Mus musculus, read-out: Inhibition Rate (growth); for inhibition at 0.1 µg/mL: L1210, 0.1 μg./ml.; for inhibition at 0.5 µg/mL: L1210, 0.5 μg./ml.
Experimental: For example, L1210 cells (5×10^4 cells/ml.) were inoculated in RPMI 1640 medium (Roswell Park Memorial Institute 1640) containing 20% calf serum and cultivated at 37° C. in the presence of 0.1 and 0.5 μg./ml. of the test compounds in a CO2 incubator.

[14] = tested on: L1210 cells; assay: Inhibition of 14C-uridine and 14C-thymidine incorporation (nucleic acid synthesis) in L1210 cells in culture (Table 5); type: cell-based; settings: 60 min. at 37° C.; for IC50: Mus musculus, L1210, 1 h
Experimental: The effect of the tetrahydropyranyl ether derivatives of formula I' on nucleic acid synthesis was examined as follows: […]
1×10^5 cells/ml. of L1210 cells were suspended in RPMI medium containing 10% calf serum, pre-cultivated at 37° C. for 1 to 2 hours in a CO2 incubator and then the test compounds were added to the medium at various concentrations. After 15 min. of incubation, ^14 C-uridine (0.05 μCi/ml.) or ^14 C-thymidine (0.05 μCi/ml.) was added and incubated at 37° C. for 60 min. Trichloroacetic acid (TCA) (10%) was added to the incubation medium to stop the reaction and precipitate the acid-insoluble materials, and then the precipitate was washed three times with 5 to 10% […]. The radioactivity was measured and expressed as 50% inhibition concentration of incorporation.

[15] = tested on: L1210 leukemia; assay: Antitumor activity in BDF1 mice inoculated with L1210 leukemia cells (Table 6); type: in vivo; settings: once daily for 10 days
Source text: As an example, BDF1 mice were inoculated intraperitoneally with 1×10^6 cells/mouse of L1210 leukemia cells.

[16] = tested on: NADPH-cytochrome P450 reductase; assay: Stability on rat hepatic NADPH-cytochrome P450 reductase: 7-deoxyaglycone formed (Table 7); type: in vitro ADME; settings: 25° C., 25 min., nitrogen; substrate 0.1 mM, NADPH 0.2 mM, enzyme 4.6 μg./ml, pH 8.0
Experimental: C. The marked antitumor effects seen from A and B above were confirmed by the stability of the test compounds on the inactivation by hepatic NADPH-cytochrome P450 reductase. Specifically, NADPH-cytochrome P450 reductase purified from rat liver homogenate was incubated with the tetrahydropyranyl ether derivatives of formula I' at 25° C. for 25 min. in nitrogen gas phase, and the incubation product formed, 7-deoxyaglycone, was determined as shown in Table 7.

[17] = thymidine, read-out: 50% Inhibition Concentration of 14C-Thymidine Incorporation
[18] = uridine, read-out: 50% Inhibition Concentration of 14C-Uridine Incorporation

Row | SMILES | MIC [1] [µg/mL] | MIC [2] [µg/mL] | MIC [3] [µg/mL] | inhibition at 0.1 µg/mL [13] [%] | inhibition at 0.5 µg/mL [13] [%] | IC50 [14, 17] [µg/mL] | IC50 [14, 18] [µg/mL] | Antitumor Activity (T/C, prolongation rate of survival day) ([15]; 0.15 mg./kg./day i.p.) [%] | Antitumor Activity (T/C, prolongation rate of survival day) ([15]; 0.3 mg./kg./day i.p.) [%] | Antitumor Activity (T/C, prolongation rate of survival day) ([15]; 0.6 mg./kg./day i.p.) [%] | Antitumor Activity (T/C, prolongation rate of survival day) ([15]; 1.25 mg./kg./day i.p.) [%] | Antitumor Activity (T/C, prolongation rate of survival day) ([15]; 2.5 mg./kg./day i.p.) [%] | Product (7-Deoxyaglycone) [16] [nmoles/tube] | Minimum Inhibitory Concentration (MIC) [6] [µg/mL] | Minimum Inhibitory Concentration (MIC) [12] [µg/mL] | Antitumor Activity (T/C, prolongation rate of survival day) ([15]; 5 mg./kg./day i.p.) [%] | Inhibition Rate (growth) ([13]; 0.1 μg./ml.) [%] | Inhibition Rate (growth) ([13]; 0.5 μg./ml.) [%] | 50% Inhibition Concentration of 14C-Thymidine Incorporation ([14]; thymidine) [µg/mL] | 50% Inhibition Concentration of 14C-Uridine Incorporation ([14]; uridine) [µg/mL] | further results
1 | COc1cccc2c1C(=O)c1c(O)c3c(c(O)c1C2=O)C[C@@](O)(C(=O)CO)C[C@@H]3O[C@H]1C[C@H](N)[C@H](OC2CCCCO2)[C@H](C)O1 (single isomer, unassigned; isomer a) [4'-O-PAa, 4'-O-tetrahydropyranyl adriamycin (isomer a)] | 6.25 (≈ 9.96 µM) | 100 (≈ 159 µM) | 3.12 (≈ 4.97 µM) | 65.9 | 81.1 | 0.37 (≈ 0.59 µM) | 0.2 (≈ 0.319 µM) | 127 | 120 | 187 | 180 | 173 | – | – | – | – | – | – | – | – | MIC [4]: > 100 µg/mL; MIC [5]: 3.12 µg/mL (≈ 4.97 µM); MIC ([6]; Priestia megaterium): 3.12 µg/mL (≈ 4.97 µM); MIC [7]: 0.78 µg/mL (≈ 1.24 µM); MIC [8]: 3.12 µg/mL (≈ 4.97 µM); MIC [9]: > 100 µg/mL; MIC [10]: > 100 µg/mL; MIC [11]: 6.25 µg/mL (≈ 9.96 µM); MIC ([12]; Staphylococcus aureus): 6.25 µg/mL (≈ 9.96 µM)
2 | COc1cccc2c1C(=O)c1c(O)c3c(c(O)c1C2=O)C[C@@](O)(C(C)=O)C[C@@H]3O[C@H]1C[C@H](N)[C@H](OC2CCCCO2)[C@H](C)O1 (single isomer, unassigned; isomer a) [4'-O-PDa, 4'-O-tetrahydropyranyl daunomycin (isomer a)] | 6.25 (≈ 10.2 µM) | 6.25 (≈ 10.2 µM) | 0.78 (≈ 1.28 µM) | 79.2 | 95 | 0.28 (≈ 0.458 µM) | 0.13 (≈ 0.213 µM) | 90 | 96 | 115 | 122 | > 320 | 37.3 | 6.25 | 12.5 | > 320 | – | – | – | – | MIC [4]: > 100 µg/mL; MIC [5]: 0.78 µg/mL (≈ 1.28 µM); MIC [7]: 0.39 µg/mL (≈ 0.638 µM); MIC [8]: 3.12 µg/mL (≈ 5.1 µM); MIC [9]: > 100 µg/mL; MIC [10]: > 50 µg/mL; MIC [11]: 6.25 µg/mL (≈ 10.2 µM)
3 | COc1cccc2c1C(=O)c1c(O)c3c(c(O)c1C2=O)C[C@@](O)(C(=O)COC1CCCCO1)C[C@@H]3O[C@H]1C[C@H](N)[C@H](OC2CCCCO2)[C@H](C)O1 (single isomer, unassigned; isomer b) [4',14-di-O-PAb, 4',14-bis(O-tetrahydropyranyl)adriamycin (isomer b)] | – | – | – | – | – | – | – | 115 | 96 | 103 | 103 | 109 | 15.8 | – | – | 161 | 25.5 | 72.1 | 0.97 | 0.24 | –
4 | COc1cccc2c1C(=O)c1c(O)c3c(c(O)c1C2=O)C[C@@](O)(C(=O)CO)C[C@@H]3O[C@H]1C[C@H](N)[C@H](OC2CCCCO2)[C@H](C)O1 (single isomer, unassigned; isomer b) [4'-O-PAb, 4'-O-tetrahydropyranyl adriamycin (isomer b)] | – | – | – | – | – | – | – | 113 | 160 | 293 | > 373 | > 360 | – | 3.12 | 6.25 | > 375 | 78.1 | 92.9 | 0.50 | 0.24 | Minimum Inhibitory Concentration (MIC) [1]: 6.25 µg/mL; Minimum Inhibitory Concentration (MIC) [2]: 100 µg/mL; Minimum Inhibitory Concentration (MIC) [3]: 3.12 µg/mL; Minimum Inhibitory Concentration (MIC) [4]: > 100 µg/mL; Minimum Inhibitory Concentration (MIC) [5]: 3.12 µg/mL; Minimum Inhibitory Concentration (MIC) [7]: 0.78 µg/mL; Minimum Inhibitory Concentration (MIC) [8]: 3.12 µg/mL; Minimum Inhibitory Concentration (MIC) [9]: > 100 µg/mL; Minimum Inhibitory Concentration (MIC) [10]: > 50 µg/mL; Minimum Inhibitory Concentration (MIC) [11]: 6.25 µg/mL
5 | COc1cccc2c1C(=O)c1c(O)c3c(c(O)c1C2=O)C[C@@](O)(C(C)=O)C[C@@H]3O[C@H]1C[C@H](N)[C@H](OC2CCCCO2)[C@H](C)O1 (single isomer, unassigned; isomer b) [4'-O-PDb, 4'-O-tetrahydropyranyl daunomycin (isomer b)] | – | – | – | – | – | – | – | 90 | 103 | 115 | 122 | 256 | 46.6 | 3.12 | 3.12 | > 320 | 74.6 | 88.8 | 0.32 | 0.20 | Minimum Inhibitory Concentration (MIC) [1]: 6.25 µg/mL; Minimum Inhibitory Concentration (MIC) [2]: 6.25 µg/mL; Minimum Inhibitory Concentration (MIC) [3]: 1.56 µg/mL; Minimum Inhibitory Concentration (MIC) [4]: > 100 µg/mL; Minimum Inhibitory Concentration (MIC) [5]: 0.78 µg/mL; Minimum Inhibitory Concentration (MIC) [7]: 0.39 µg/mL; Minimum Inhibitory Concentration (MIC) [8]: 1.56 µg/mL; Minimum Inhibitory Concentration (MIC) [9]: > 50 µg/mL; Minimum Inhibitory Concentration (MIC) [10]: 25 µg/mL; Minimum Inhibitory Concentration (MIC) [11]: 6.25 µg/mL
6 | COc1cccc2c1C(=O)c1c(O)c3c(c(O)c1C2=O)C[C@@](O)(C(=O)COC1CCCCO1)C[C@@H]3O[C@H]1C[C@H](N)[C@H](O)[C@H](C)O1 (stereo partly drawn) [Example 14-O-PA, 14-O-tetrahydropyranyl adriamycin] | – | – | – | 7.6 | 58.3 | 0.42 (≈ 0.669 µM) | 0.17 (≈ 0.271 µM) | 103 | 110 | 113 | 126 | 130 | 18.4 | – | – | 142 | – | – | – | – | –
